The record followed here is patent US20250034159A1, “INHIBITORS OF EPIDERMAL GROWTH FACTOR RECEPTOR” (ORIC Pharmaceuticals, Inc., priority 2021, published 2025).

Test [1] addresses recombinant human EGFR exon 19 deletion/C797S double mutant protein (Homo sapiens (Human), UniProt P00533, C797S/DEL746-750). The test is described as follows: Biological Activity Assay C: biochemical assay against EGFR exon 19 deletion/C797S protein (EGFR d19/CS). The gist of the method: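 IC50 values were fitted with a 4-parameter model to reaction slopes taken from 90 kinetic reads spaced 120 s apart. The Phosphosens sensor/ATP working solution was 40 uM/4 mM, and compound was dosed as 16-point dilutions at 2.5% final DMSO.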

In the next test the test system is Ba/F3_EGFR WT cells. Briefly: Biological Activity Assay D: BaF3 cell proliferation assay, EGFR wild-type (BaF3 WT). Format: cell-based. The conditions noted are these: Ba/F3 EGFR, read-out: BaF3 WT IC50.
The subject of another test is BaF3_EGFR LR/CS cells. Briefly: Biological Activity Assay D: BaF3 cell proliferation assay, EGFR L858R/C797S mutant (BaF3 LR/CS). The test is classed as cell-based. The conditions noted are these: Ba/F3 EGFR, read-out: BaF3 LR/CS IC50.
Another test concerns BaF3_EGFR d19/CS cells. Briefly: Biological Activity Assay D: BaF3 cell proliferation assay, EGFR exon 19 deletion/C797S (BaF3 d19/CS). Particulars: Ba/F3 EGFR, read-out: BaF3 d19/CS IC50. The test is classed as cell-based.
Setting [2] is: Ba/F3_EGFR WT cells, ~72 hours, CellTiter-Glo.
Where [3] appears, read: BaF3_EGFR LR/CS cells, ~72 hours, CellTiter-Glo.
Where [4] appears, read: BaF3_EGFR d19/CS cells, ~72 hours, CellTiter-Glo.

Read-outs that look alike come from different tables or passages of the source.

recombinant human EGFR exon 19 deletion/C797S double mutant protein, sequence (P00533 other isoform, or with tags, fused parts or gaps C797S/del 1-668/del 746-750 limits assumed): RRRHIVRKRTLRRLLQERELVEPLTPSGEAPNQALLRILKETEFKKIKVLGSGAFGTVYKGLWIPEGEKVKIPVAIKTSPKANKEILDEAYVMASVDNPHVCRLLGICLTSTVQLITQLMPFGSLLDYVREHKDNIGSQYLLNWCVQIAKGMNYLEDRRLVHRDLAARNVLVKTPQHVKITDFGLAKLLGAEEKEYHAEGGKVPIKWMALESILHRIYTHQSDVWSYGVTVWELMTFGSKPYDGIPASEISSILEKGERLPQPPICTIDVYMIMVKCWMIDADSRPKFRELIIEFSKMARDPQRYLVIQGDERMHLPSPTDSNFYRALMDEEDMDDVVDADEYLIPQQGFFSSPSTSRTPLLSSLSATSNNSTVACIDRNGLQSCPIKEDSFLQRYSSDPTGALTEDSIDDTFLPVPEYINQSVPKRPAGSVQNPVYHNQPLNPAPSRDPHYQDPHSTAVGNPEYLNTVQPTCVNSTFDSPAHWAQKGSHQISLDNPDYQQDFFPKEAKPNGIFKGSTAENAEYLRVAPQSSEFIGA

Turning to `O=S1(=O)CC(n2cc(-c3ncnc4oc(-c5cccnc5)cc34)c(-c3ccc(F)cc3)n2)C1` [Example 164, 3-{3-(4-fluorophenyl)-4-[6-(pyridin-3-yl)furo[2,3-d]pyrimidin-4-yl]-1H-pyrazol-1-yl}-1λ6-thietane-1,1-dione], the IC50 in test [1] is 0.29 nM; in the test on Ba/F3_EGFR WT cells (setting [2]) it was 888 nM; with BaF3_EGFR LR/CS cells (setting [3]), 26.3 nM; in the test with BaF3_EGFR d19/CS cells (setting [4]), 36.3 nM.
The matching figures for `O=S1(=O)CC(n2cc(-c3ncnc4oc(-c5ccncc5)cc34)c(-c3ccc(F)cc3)n2)C1` [Example 165, 3-{3-(4-fluorophenyl)-4-[6-(pyridin-4-yl)furo[2,3-d]pyrimidin-4-yl]-1H-pyrazol-1-yl}-1λ6-thietane-1,1-dione]: 0.26 nM, 1090 nM, 20.6 nM and 37 nM.
The matching figures for `O=S1(=O)CC(n2cc(-c3ncnc4oc(N5CC6(CCOC6)C5)cc34)c(-c3ccc(F)cc3)n2)C1` [Example 168, 3-{3-(4-fluorophenyl)-4-[6-(6-oxa-2-azaspiro[3.4]octan-2-yl)furo[2,3-d]pyrimidin-4-yl]-1H-pyrazol-1-yl}-1λ6-thietane-1,1-dione]: 15.6 nM, above 20000 nM, 3570 nM and 1150 nM.
The matching figures for `O=S1(=O)CC(n2cc(-c3ncnc4oc(-c5cccc(C(F)(F)F)c5)cc34)c(-c3ccc(F)cc3)n2)C1` [Example 169, 3-[3-(4-fluorophenyl)-4-{6-[3-(trifluoromethyl)phenyl]furo[2,3-d]pyrimidin-4-yl}-1H-pyrazol-1-yl]-1λ6-thietane-1,1-dione]: 3.08 nM, 11300 nM, 399 nM and 461 nM.
Consider `Fc1ccc(-c2nn(C3CC(F)(F)C3)cc2-c2ncnc3oc(-c4ccccc4)cc23)cc1` [Example 170, 4-[1-(3,3-difluorocyclobutyl)-3-(4-fluorophenyl)-1H-pyrazol-4-yl]-6-phenylfuro[2,3-d]pyrimidine], for which the IC50 in test [1] turned out to be 1.37 nM; in the test on Ba/F3_EGFR WT cells (setting [2]) it was 4840 nM; with BaF3_EGFR LR/CS cells (setting [3]) it was 97.1 nM; in the test with BaF3_EGFR d19/CS cells (setting [4]), 213 nM.
`O=S1(=O)CCC(n2cc(-c3ncnc4[nH]c(-c5ccccc5)nc34)c(-c3ccc(F)cc3)n2)C1` (stereo not shown) [Example 171, 3-[3-(4-fluorophenyl)-4-(8-phenyl-9H-purin-6-yl)-1H-pyrazol-1-yl]-1λ6-thiolane-1,1-dione]: the IC50 in test [1] worked out at 0.06 nM; with Ba/F3_EGFR WT cells (setting [2]), 1810 nM; in the test with BaF3_EGFR LR/CS cells (setting [3]), 7.74 nM; in the test on BaF3_EGFR d19/CS cells (setting [4]) it was 26.6 nM.
The matching figures for `Fc1ccc(-c2nn([C@H]3C[C@H]4CC[C@@H](C3)O4)cc2-c2ncnc3oc(-c4ccccc4)cc23)cc1` [Example 172, 4-{3-(4-fluorophenyl)-1-[(1R,3r,5S)-8-oxabicyclo[3.2.1]octan-3-yl]-1H-pyrazol-4-yl}-6-phenylfuro[2,3-d]pyrimidine]: 1.44 nM, 7050 nM, 33.1 nM and 199 nM.
On the same counts, the results for `O=S1(=O)CC(n2cc(-c3ncnc4oc(-c5ccccn5)cc34)c(-c3ccc(F)cc3)n2)C1` [Example 173, 3-{3-(4-fluorophenyl)-4-[6-(pyridin-2-yl)furo[2,3-d]pyrimidin-4-yl]-1H-pyrazol-1-yl}-1λ6-thietane-1,1-dione] are 0.11 nM, 800 nM, 17.6 nM and 28.9 nM.
As for `O=S1(=O)CC(n2cc(-c3ncnc4oc(-c5ccnnc5)cc34)c(-c3ccc(F)cc3)n2)C1` [Example 174, 3-{3-(4-fluorophenyl)-4-[6-(pyridazin-4-yl)furo[2,3-d]pyrimidin-4-yl]-1H-pyrazol-1-yl}-1λ6-thietane-1,1-dione], the IC50 amounted to 3.72 nM in test [1], 9070 nM in the test on Ba/F3_EGFR WT cells (setting [2]), 770 nM in the test on BaF3_EGFR LR/CS cells (setting [3]) and 491 nM in the test on BaF3_EGFR d19/CS cells (setting [4]).
The matching figures for `O=S1(=O)CC(n2cc(-c3ncnc4oc(-c5cncnc5)cc34)c(-c3ccc(F)cc3)n2)C1` [Example 175, 3-{3-(4-fluorophenyl)-4-[6-(pyrimidin-5-yl)furo[2,3-d]pyrimidin-4-yl]-1H-pyrazol-1-yl}-1λ6-thietane-1,1-dione]: 6.08 nM, 11700 nM, 472 nM and 248 nM.
The matching figures for `NC(=O)c1cccc(-c2cc3c(-c4cn(C5CS(=O)(=O)C5)nc4-c4ccc(F)cc4)ncnc3o2)c1` [Example 176, 3-{4-[1-(1,1-dioxo-1λ6-thietan-3-yl)-3-(4-fluorophenyl)-1H-pyrazol-4-yl]furo[2,3-d]pyrimidin-6-yl}benzamide]: 0.36 nM, 2540 nM, 134 nM and 140 nM.
For the molecule `O=S1(=O)CC(n2cc(-c3ncnc4oc(-c5cccc(C6CC6)c5)cc34)c(-c3ccc(F)cc3)n2)C1` [Example 178, 3-{4-[6-(3-cyclopropylphenyl)furo[2,3-d]pyrimidin-4-yl]-3-(4-fluorophenyl)-1H-pyrazol-1-yl}-16-thietane-1,1-dione], the IC50 was 2.27 nM in test [1], 5200 nM in the test with Ba/F3_EGFR WT cells (setting [2]), 89.7 nM in the test with BaF3_EGFR LR/CS cells (setting [3]) and 187 nM in the test on BaF3_EGFR d19/CS cells (setting [4]).
`CCn1cc(-c2ncnc3oc(-c4ccccc4)cc23)c(-c2ccc(F)cc2)n1` [Example 179, 4-[1-ethyl-3-(4-fluorophenyl)-1H-pyrazol-4-yl]-6-phenylfuro[2,3-d]pyrimidine]: the IC50 in test [1] amounted to 0.39 nM; in the test on Ba/F3_EGFR WT cells (72 h), 2200 nM; in the test on BaF3_EGFR LR/CS cells (72 h), 17.2 nM; in the test on BaF3_EGFR d19/CS cells (72 h), 41 nM.
As to `O=C(c1ccccc1)N1CC=C(c2cc3c(-c4cn(C5CS(=O)(=O)C5)nc4-c4ccc(F)cc4)ncnc3o2)CC1` [Example 180, 3-{4-[6-(1-benzoyl-1,2,3,6-tetrahydropyridin-4-yl)furo[2,3-d]pyrimidin-4-yl]-3-(4-fluorophenyl)-1H-pyrazol-1-yl}-1λ6-thietane-1,1-dione], the IC50 in test [1] came to 0.39 nM; in the test with Ba/F3_EGFR WT cells (setting [2]), 2920 nM; in the test with BaF3_EGFR LR/CS cells (setting [3]), 128 nM; with BaF3_EGFR d19/CS cells (setting [4]), 161 nM.
On the same counts, the results for `CS(=O)(=O)N1CC=C(c2cc3c(-c4cn(C5CS(=O)(=O)C5)nc4-c4ccc(F)cc4)ncnc3o2)CC1` [Example 181, 3-[3-(4-fluorophenyl)-4-{6-[1-(methanesulfonyl)-1,2,3,6-tetrahydropyridin-4-yl]furo[2,3-d]pyrimidin-4-yl}-1H-pyrazol-1-yl]-1λ6-thietane-1,1-dione] are 0.27 nM, 2110 nM, 79.3 nM and 97 nM.
With `O=S1(=O)CC(n2cc(-c3ncnc4oc(-c5ccccc5C(F)(F)F)cc34)c(-c3ccc(F)cc3)n2)C1` [Example 182, 3-[3-(4-fluorophenyl)-4-{6-[2-(trifluoromethyl)phenyl]furo[2,3-d]pyrimidin-4-yl}-1H-pyrazol-1-yl]-1λ6-thietane-1,1-dione], the IC50 is 1.65 nM in test [1], above 20000 nM in the test on Ba/F3_EGFR WT cells (setting [2]), 444 nM with BaF3_EGFR LR/CS cells (setting [3]) and 392 nM with BaF3_EGFR d19/CS cells (setting [4]).
